Experimental data taken from patent US20020002140A1, “Novel bisphosphonates and uses thereof” (priority 2000, published 2002).
Where two headings read alike, the source gives them in different places.

Tests used:
[1] = given orally; cited from earlier work
osteoclasts = assay: Assay of bone resorption in vitro (bone slice assay); type: cell-based; settings: chick embryo bone cells on dentine discs; FIG. 1 (MH2 vs MH3), FIG. 2 (alendronate vs glucoside)
Protocol: Resorption lacunae where identified and quantitated using an Olympus BH2 microscope fitted for incident light microscopy. The plan area of resorption was determined by point counting using a ×10 objective and a drawing tube. The total area of each disc was analyzed.

[2] = tested on: bone cell suspension, including osteoclasts and other cell types; settings: FIG. 3, concentrations up to 10^−4M, Sodium Salt
From the text: Sterile, devitalized discs of dentine (diameter 4 mm) where prepared and placed in a 96 well tissue culture plate, one disc per well, and pre-wet overnight in α-MEM tissue culture medium supplemented with 10% fetal calf serum. The femora and tibiae where dissected from 18 day chick embryos and transferred into α-MEM culture medium supplemented with 10% fetal calf serum.
The bones were finely minced using a sharp scalpel and the resulting suspension was triturated using a sterile pipette and transferred to a sterile plastic tube. The suspension was allowed to stand for one minute so that fragments of bone and other debris settled and the upper layer containing a bone cell suspension, including osteoclasts and other cell types, was harvested.
Aliquots of this bone cell suspension were added to the culture wells containing the devitalized dentine discs. Cells where allowed to settle for between 2 and 24 hours. The medium was then removed and new medium containing the test reagents was added. Cells where cultured for periods of time up to 72 hours after which time the dentine discs were washed in PBS at 37° C., fixed in 4% glutaraldehyde in 0.2 M sodium cacodylate, and stained for 5 minutes in 1% (w/v) toluidine blue in 0.5% disodium tetraborate. Excess stain was removed by washing in 70% ethanol for one minute. The dentine discs were then washed in tap water and air-dried.

For `NCCCC(O)(P(=O)(O)O)P(=O)(O)O` [FOSAMAX, alendronate sodium], the “drug absorbed from the gut, on average” value [1] is listed as “about 0.7%”.
In the case of `CC(Nc1ccc(O)cc1)(P(=O)(O)O)P(=O)(O)O` [MH2, 1-((4-hydroxyphenyl)amino)ethylidene-1,1-diphosphonic acid], the “effect on bone resorption (plan area of resorption lacunae on dentine discs)” value (osteoclasts) is reported as “substantially less effect than MH3”.
For `O=P([O-])(O)C(O)(CCCNC1O[C@H](CO)[C@@H](O)[C@H](O)[C@H]1O)P(=O)(O)O.[Na+]` (stereo partly shown) [glucoside, N-glucopyranosyl Alendronate Sodium Salt], the “toxicity (cell number)” value [2] was “substantially no toxicity” and the “toxicity (cell number)” value ([2]; listed as alendronate glycoside) was “substantially less toxicity than unglycosylated alendronate”.
